Assay results from US20230348467A1, “Heteroaryl Derivative, Preparation Method Therefor, And Use Thereof” (Zhejiang Hisun Pharmaceutical Co., Ltd., priority 2020, published 2023).

Key:
[1] = tested on: NCI-H358 cells (containing KRAS G12C mutation); assay: Inhibition of NCI-H358 cell proliferation (CellTiter-Glo); assay type: cell-based; details: Homo sapiens, NCI-H358, 120 h, read-out: IC50(nM)/NCI-H358
Method: (§1) The following method was used to determine the effects of the compounds of the present invention on NCI-H358 cell proliferation. NCI-H358 cells (containing KRAS G12C mutation) were purchased from Cell Resource Center of Shanghai Institutes for Biological Sciences, Chinese Academy of Sciences, and cultured in RPMI 1640 mediums containing 10% fetal bovine serum, 100 U penicillin, 100 μg/mL streptomycin and 1 mM Sodium Pyruvate. The activities of the cells were determined by CellTiter-Glo® Luminescent Cell Viability Assay kit (Promega, article number: G7573).
(§2) The experimental method was operated according to the steps in the kit instruction, and was briefly described as follows: test compounds were first dissolved in DMSO to prepare storage solutions of 10 mM, and then diluted in mediums, prepared as test samples. The final concentrations of the test compounds were 10,000 nM to 1.52 nM. The cells in logarithmic phase were inoculated in a 96-well cell culture plate with 1,000 cells per well, after cultured overnight in 5% CO2 incubator at 37° C., the test compounds were added to the incubator to continue the culture for 120 hours. After the culture, 50 μL of CellTiter-Glo detection solution was added to each well, shaken for 5 minutes, and then stood for 10 minutes. Then, a Luminescence mode was used to read the luminescence values of each well of the samples on a microplate reader. Compared with the numerical value of the control group (0.3% DMSO), the percentage inhibition rates of the compounds at each concentration were calculated, and the IC50 values of the compounds inhibiting cell proliferation were obtained by performing nonlinear regression analysis with logarithmic values of the compound concentration—inhibition rate by GraphPad Prism 5 software, which was shown in Table 3.

[2] = tested on: NCI-H358 subcutaneous transplanted tumors; assay: Growth inhibition of subcutaneous transplanted NCI-H358 tumors in BALB/c nude mice; assay type: in vivo
Method: To evaluate antitumor effects and safety of the compounds of Example 27 in an animal model of BALB/c nude mice with subcutaneous transplanted NCI-H358 cell lines
An approximate amount of the compound of Example 27 was weighed, added with an approximate amount of DMA (dimethylacetamide) to fully dissolve the compound, then added with Solutol HS 15 and Saline (DMA: Solutol HS 15: Saline=5:10:85 (v/v/v)) in turn, and mixed evenly by vortex, and the configuration concentration was 3 mg/mL.
BALB/c nude mice, female, 6-7 weeks old (the age of mice when tumor cells were inoculated), 12 mice, purchased from Jiangsu GemPharmatech.
NCI-H358 cells were cultured in RPMI 1640 mediums containing 10% fetal bovine serum, 1% sodium pyruvate and 1% glutamine. NCI-H358 cells in exponential growth period were collected, and resuspend in PBS to a suitable concentration for subcutaneous tumor inoculation in nude mice.
12 female BALB/c nude mice were subcutaneously inoculated with about 3×10^6 NCI-H358 cells on the right sides of their backs. When the average volume of tumors reaches about 100 mm^3 to 200 mm^3, the mice were randomly divided according to tumor sizes with 6 mice in each group. The animals in each group were given the subjects once a day (qd) according to the animal body weights at a fixed time every day according to the table below, administered orally (po) for 10 consecutive days, and the daily body weights were recorded.
After tumor inoculation, routine monitoring included the effects of tumor growth and treatment on the normal behaviors of the animals, specifically the mobility, feeding and drinking, weight gain or loss, eyes, coat and other abnormalities of the experimental animals.
(1) TV (tumor volume)=½×a×b^2, wherein a and b represent the length and the width of the tumor respectively;
(2) RTV (relative tumor volume)=Vt/V0, wherein V0 is the tumor volume measured at the time of grouping administration (i.e., d0), and Vt is the tumor volume at each measurement;
(3) Relative tumor proliferation rate T/C (%)=TRTV/CRTV×100%, wherein TRTV is the RTV of the treatment group and CRTV is the RTV of the control group;

[3] = tested on: NCI-H23 cells (containing KRAS G12C mutation); assay: Inhibition of NCI-H23 cell proliferation (CellTiter-Glo); assay type: cell-based; details: Homo sapiens, 120 hours culture
Method: as §1, with “NCI-H23” for “NCI-H358”
as §2, with “value of a control group” for “value of the control group”, “in Table 2.” for “in Table 3.”

[4] = Pharmacokinetic test of mice, intragastric (Test Example 5); assay type: in vivo; details: ICR mice, PO, 5 mg/kg
Text: ICR mice were used as test animals, and LC/MS/MS methods was used to determine the drug concentrations at different moments in plasma of mice administered by intragastric injectiion with the compound 27 of the present invention, and to study the pharmacokinetic characteristics of the compound of the present invention in mice. An appropriate amount of drug compound 27 was weighed, added with an appropriate amount of sodium carboxymethylcellulose (CMC-Na, containing 0.5% Tween 80), vortexed, and ultrasonically prepared into 0.5 mg/kg suspension. The ICR mice in the intragastric group of each compound to be tested (9 mice in each group) were fasted overnight and then administered by intragastric injection (PO, administration dose of the compound 27 was 5 mg/kg, and administration volume of the compound 27 was 10 mL/kg), and ate 4 hours after administration. About 0.2 mL of blood was collected via jugular vein before administration and 0.083 hour, 0.25 hour, 0.5 hour, 1 hour, 2 hours, 4 hours, 8 hours, 12 hours and 24 hours after administration, and heparin sodium was used for anticoagulation. The collected blood samples were placed on ice, and plasma was separated by centrifugation (centrifugation condition: 1,500 g, 10 minutes). The collected plasma samples were stored at −40° C. to −20° C. before analysis. LC-MS/MS was used to determine the content of the compound to be tested in mouse plasma after intragastric administration.

[5] = target: recombinant human full-length SHP2 (Homo sapiens (Human), UniProt Q06124); assay: Allosteric inhibition of full-length SHP2 enzyme (DiFMUP fluorescence); assay type: biochemical; details: full-length SHP2 0.5 nM, activating peptide 0.5 uM, DiFMUP substrate
Sequence of recombinant human full-length SHP2 (Q06124 whole entry): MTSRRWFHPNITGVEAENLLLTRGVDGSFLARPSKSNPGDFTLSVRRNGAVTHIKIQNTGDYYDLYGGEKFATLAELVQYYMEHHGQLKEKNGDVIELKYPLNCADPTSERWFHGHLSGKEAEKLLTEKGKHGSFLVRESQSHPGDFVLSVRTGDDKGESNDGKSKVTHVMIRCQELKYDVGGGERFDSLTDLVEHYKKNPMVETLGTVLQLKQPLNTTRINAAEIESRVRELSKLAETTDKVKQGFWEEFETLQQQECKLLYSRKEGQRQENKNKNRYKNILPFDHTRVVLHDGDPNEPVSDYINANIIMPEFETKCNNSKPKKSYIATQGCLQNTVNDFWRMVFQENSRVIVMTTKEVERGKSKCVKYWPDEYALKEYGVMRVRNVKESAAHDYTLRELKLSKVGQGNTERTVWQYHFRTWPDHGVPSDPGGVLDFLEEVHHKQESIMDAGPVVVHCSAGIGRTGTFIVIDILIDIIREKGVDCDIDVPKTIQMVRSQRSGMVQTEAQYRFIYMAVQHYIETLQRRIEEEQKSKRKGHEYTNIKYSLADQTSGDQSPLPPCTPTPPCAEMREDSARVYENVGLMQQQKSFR
Text: The following method was used to determine the inhibition degrees of the compounds of the present invention on the activity of recombinant human full-length SHP2 in vitro. SHP2 was allosterically activated by the binding of di-tyrosyl-phosphorylated peptide to a Src homologous 2(SH2) domain of SHP2. An activation step of the latter leads to the self-inhibitory interface release of SHP2, and then activates SHP2 protein tyrosine phosphatase (PTP), which might be used for substrate recognition and reaction catalysis.
The experimental process was briefly described as follows: Test compounds were first dissolved in DMSO to prepare storage solutions. […] Then, the compounds to be tested were added in a concentration range of 0.00004-10 uM and incubated at 25° C. for 60 minutes. Then DiFMUP (Thermo, D6567) was added in the reaction and incubated at 25° C. for 30 minutes. After incubation, readings were taken using a microplate reader (BMG) with excitation and emission wavelengths of 340 nm and 450 nm, respectively.

[6] = Pharmacokinetic test in ICR mice, intragastric (Test Example 4); assay type: in vivo; details: PO
Text: ICR mice were used as test animals, and LC/MS/MS methods was used to determine the drug concentrations at different moments in plasma of mice administered by intragastric injection with the compound 5 and the compound 6 of the present invention, and to study the pharmacokinetic characteristics of the compounds of the present invention in mice. An appropriate amount of drug was weighed, added with an appropriate amount of sodium carboxymethylcellulose (CMC-Na, containing 0.5% Tween 80), vortexed, and ultrasonically prepared into 1 mg/kg suspension. The ICR mice in the intragastric group of each compound to be tested (9 mice in each group) were fasted overnight and then administered by intragastric injection (PO, […], and administration volume of 10 mL/kg), and ate 4 hours after administration. About 0.2 mL of blood was collected via jugular vein before administration and 0.083 hour, 0.25 hour, 0.5 hour, 1 hour, 2 hours, 4 hours, 8 hours and 24 hours after administration, and heparin sodium was used for anticoagulation. The collected blood samples were placed on ice, and plasma was separated by centrifugation (centrifugation condition: 1,500 g, 10 minutes). The collected plasma samples were stored at −40° C. to −20° C. before analysis. LC-MS/MS was used to determine the contents of the compounds to be tested in mouse plasma after intragastric administration.

[7] = Day 10, 30 mg/kg po qd for 10 days

Which results are given for NC(=O)c1nc(N2CCC(N)(c3ccccc3)CC2)nc2[nH]nc(-c3ccnc(Cl)c3Cl)c12 [Example 27, 6-(4-amino-4-phenylpiperidin-1-yl)-3-(2,3-dichloropyridin-4-yl)-1H-pyrazolo[3,4-d]pyrimidine-4-carboxamide]?
IC50 [1]: 37 nM; Growth inhibition effect on NCI-H358 tumor-bearing mice (in words) ([2]; 30 mg/kg): obvious growth inhibition effects; Body weight change ([2]; 30 mg/kg po qd for 10 days): no obvious change in body weight; Tumor volume (mm^3, mean value ± standard error) Day 0 ([2]; Day 0 (at grouping), 30 mg/kg po qd group): 138 ± 14 mm^3; TGI % Day 10 [2, 7]: 55.6%; Tumor volume (mm^3, mean value ± standard error) Day 10 [2, 7]: 155 ± 22 mm^3; IC50 [3]: 167 nM; Pharmacokinetic properties (conclusion in words) [4]: good pharmacokinetic properties; AUC(0-inf) ([4]; mouse, plasma, read-out: Area under curve AUC0-∞): 2720 ng·h/mL; Cmax ([4]; mouse, plasma, read-out: Blood concentration Cmax): 285 ng/mL; Tmax ([4]; mouse, plasma, read-out: Peak time Tmax): 8 h; IC50 [5]: 7 nM

With NC(=O)c1nc(N2CCC3(CC2)Cc2ccccc2[C@H]3N)nc2[nH]nc(-c3cccc(Cl)c3Cl)c12 [Example 5, (S)-6-(1-amino-1,3-dihydrospiro[indene-2,4′-piperidin]-1′-yl)-3-(2,3-dichlorophenyl)-1H-pyrazolo[3,4-d]pyrimidine-4-carboxamide] as the compound, how does the IC50 [1] read?
The IC50 was 27 nM.

What about the IC50 [3] of the same compound?
Its IC50 is 143 nM.

What about the IC50 [5] of the same compound?
The IC50 was 1 nM.

And the “Pharmacokinetic properties (conclusion in words)” value [6]?
Its value is “good pharmacokinetic properties”.

What about the AUC(0-inf) ([6]; mouse, 10 mg/kg per table (method text says 1 mg/kg), plasma, read-out: Area under curve AUC0-∞) of the same compound?
Its AUC(0-inf) is 31300 ng·h/mL.

What about the Cmax ([6]; mouse, 10 mg/kg per table (method text says 1 mg/kg), plasma, read-out: Blood concentration Cmax) of the same compound?
The Cmax was 2110 ng/mL.
